Experimental findings from ChEMBL document CHEMBL1147468, “Synthesis and anti-inflammatory effects of novel pimarane diterpenoid analogs” (Bioorg Med Chem Lett, 2004) are described below.

Test [1] relates to RAW264.7. Put plainly: In vitro inhibition of NO production at 40 uM concentration in RAW 264.7 cells. It counts as functional. Conditions: Mus musculus.
Test [2] deals with T1, Prostaglandin G/H synthase 2 (Ovis aries, UniProt P79208).
T1 sequence (P79208 whole entry): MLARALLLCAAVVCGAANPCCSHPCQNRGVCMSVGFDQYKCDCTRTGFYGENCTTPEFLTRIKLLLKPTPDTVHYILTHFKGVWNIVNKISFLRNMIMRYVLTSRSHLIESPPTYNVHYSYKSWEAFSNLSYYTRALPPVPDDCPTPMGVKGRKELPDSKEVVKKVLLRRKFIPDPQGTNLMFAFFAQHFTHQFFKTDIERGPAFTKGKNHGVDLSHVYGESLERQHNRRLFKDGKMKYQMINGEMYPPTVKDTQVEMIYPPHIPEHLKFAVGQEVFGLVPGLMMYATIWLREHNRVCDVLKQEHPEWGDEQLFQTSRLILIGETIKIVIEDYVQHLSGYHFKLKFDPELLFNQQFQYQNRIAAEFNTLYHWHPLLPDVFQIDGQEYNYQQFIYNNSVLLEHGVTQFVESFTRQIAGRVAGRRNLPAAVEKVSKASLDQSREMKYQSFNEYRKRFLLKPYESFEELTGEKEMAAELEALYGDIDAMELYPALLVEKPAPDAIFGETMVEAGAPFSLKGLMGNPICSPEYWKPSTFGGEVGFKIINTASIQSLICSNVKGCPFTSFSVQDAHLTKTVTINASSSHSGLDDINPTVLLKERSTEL
Briefly: In vitro inhibition of Prostaglandin G/H synthase 2 from sheep placental cotyledons.

Test [3] has as its system RAW264.7. Put plainly: In vitro inhibition of NO production at 40 uM concentration in RAW 264.7 cells; No activity. Type of test: functional, cell-based. The settings on record: Mus musculus.
Test [4] addresses T1, Prostaglandin G/H synthase 2. Put plainly: In vitro inhibition of Prostaglandin G/H synthase 2 from sheep placental cotyledons; No activity.

For orientation: inhibition means how much of the control response was suppressed. As a reminder, the IC50 is the concentration that gives 50% inhibition. Lower therefore signals greater potency in that assay.

The structures appear in SMILES notation. Active and inactive are the calls of the source. The calls are words filed in the database; no cut-off is given here.

Molecule `C=C[C@@]1(C)CC=C2C(CCC3[C@](C)(CCC(=O)NS(=O)(=O)c4ccc(I)cc4)CCC[C@@]23C)C1` (stereo not given in full) yielded an inhibition at 40 µM in test [1] of 99.5%. In test [2], this molecule came in with an IC50 of 60.7 µM.
As for `C=C[C@@]1(C)CC=C2C(CCC3[C@](C)(CC(=O)O)CCC[C@@]23C)C1` (stereo not given in full), the inhibition result in test [3] is “inactive”.
The molecule `C=C[C@@]1(C)CC=C2C(CCC3[C@](C)(C(=O)NC)CCC[C@@]23C)C1` (stereo not given in full) returned an inhibition at 40 µM in test [1] of 85.3%. Also, the IC50 entry in test [4] is “Not Active”.
With `C=C[C@@]1(C)CC=C2C(CCC3[C@](C)(CO)CCC[C@@]23C)C1` (stereo not given in full) [ACANTHOL], in test [1], testing at 40 µM gave an inhibition of 84.8%. In addition, the IC50 result in test [4] was “Not Active”.
As for `C=C[C@@]1(C)CC=C2C(CCC3[C@](C)(C/C=C\C(=O)O)CCC[C@@]23C)C1` (stereo not given in full), at 40 µM the inhibition in test [1] was 77.9%.
`C=C[C@@]1(C)CC=C2C(CCC3[C@](C)(CCCC(=O)O)CCC[C@@]23C)C1` (stereo not given in full) displayed an inhibition at 40 µM in test [1] of 65.2%.
Same read-out and setting: to `C=C[C@@]1(C)CC=C2C(CCC3[C@@]2(C)CCC[C@@]3(C)/C=C/C=C/C(=O)O)C1` (stereo not given in full) belongs 96.5%.
In test [1], `C=C[C@@]1(C)CC=C2C(CCC3[C@](C)(CCC/C=C/C(=O)O)CCC[C@@]23C)C1` (stereo not given in full) had an inhibition at 40 µM of 98.2%. In test [2], this molecule registered an IC50 of 37.8 µM.
As for `C=C[C@@]1(C)CC=C2C(CCC3[C@](C)(CCCCC(=O)O)CCC[C@@]23C)C1` (stereo not given in full), 40 µM produced 99% inhibition in test [1].
`C=C[C@@]1(C)CC=C2C(CCC3[C@](C)(C(=O)n4ccnc4)CCC[C@@]23C)C1` (stereo not given in full) gave an inhibition at 40 µM in test [1] of 99%. Besides, the IC50 result in test [4] is “Not Active”.
As for `C=C[C@@]1(C)CC=C2C(CCC3[C@](C)(CCC(=O)O)CCC[C@@]23C)C1` (stereo not given in full), the inhibition at 40 µM in test [1] is 23%.
`C=C[C@@]1(C)CC=C2C(CCC3[C@](C)(C(=O)NN)CCC[C@@]23C)C1` (stereo not given in full): the inhibition at 40 µM in test [1] came out at 3.4%.
On to `C=C[C@@]1(C)CC=C2C(CCC3[C@@]2(C)CCC[C@@]3(C)/C=C/C(=O)O)C1` (stereo not given in full), for which the inhibition at 40 µM in test [1] was 45.1%.
For `C=C[C@@]1(C)CC=C2C(CCC3[C@](C)(CC(=O)NS(=O)(=O)c4ccc(I)cc4)CCC[C@@]23C)C1` (stereo not given in full), in test [1], testing at 40 µM gave an inhibition of 94.6%. This molecule also displayed an IC50 in test [2] of 72.2 µM.
